# Results taken from ChEMBL document CHEMBL5608224, “Novel KRAS Inhibitors for Treating Non-small Cell Lung Cancer” (ACS Med Chem Lett, 2024).
# pIC50: −log10 of the molar value.
# Assay: Inhibition of recombinant GMPPNP-loaded KRAS-G12C mutant (unknown origin) /recombinant GST-tagged RAF RBD (unknown origin) complex assessed as disruption preincubated with KRAS G12C for 20 mins followed by RAF addition and measured after 20 mins by HTRF assay
# Parameters: species or system Homo sapiens
row,Compound,pIC50
1,C#Cc1cccc2cccc(-c3ccc4c(N(C)[C@@H]5CCN(C(=O)/C(F)=C/c6ccccn6)C5)nc(OC[C@@]56CCCN5C[C@H](F)C6)nc4c3F)c12,7.70
2,C#Cc1c(F)ccc2cc(O)cc(-c3ccc4c(N5CCN(C(=O)/C(F)=C/c6nccs6)CC5)nc(OC[C@@]56CCCN5C[C@H](F)C6)nc4c3F)c12,8.70
3,CN1CCC[C@H]1COc1nc(N2CCN(C(=O)/C(F)=C/c3nccs3)[C@@H](CC#N)C2)c2ccc(-c3cc(O)cc4ccccc34)c(F)c2n1,7.80
4,C#Cc1c(F)ccc2cc(O)cc(-c3ccc4c(N5CCN(C(=O)/C(F)=C/c6ccccn6)CC5)nc(OC[C@@]56CCCN(C)[C@]5(C)CCC6)nc4c3F)c12,8.19
5,CN1CCC[C@H]1COc1nc(N2CCN(C(=O)/C(F)=C/c3ncccn3)[C@@H](CC#N)C2)c2ccc(-c3cc(O)cc4ccccc34)c(F)c2n1,8.00
6,N#CC[C@H]1CN(c2nc(OC[C@@]34CCCN3C[C@H](F)C4)nc3c(F)c(-c4cc(O)cc5ccccc45)ccc23)CCN1C(=O)/C(F)=C/c1ncccn1,7.96
